Test system: Kochia (Bassia scoparia)
Test: Greenhouse post emergence treatment, visual herbicidal control on a scale from 0 to 100
Assay type: in vivo
Excerpt: Synergism can be described as an interaction where the combined effect of two or more compounds is greater than the sum of the individual effects of each of the compounds. The presence of a synergistic effect in terms of percent control, between two mixing partners (X and Y) can be calculated using the Colby equation (Colby, S. R., 1967, Calculating Synergistic and Antagonistic Responses in Herbicide Combinations, Weeds, 15, 21-22):
When the observed combined control effect is greater than the expected (calculated) combined control effect (E), then the combined effect is synergistic.
Weeds included Kochia (Bassia scoparia). However, the herbicidal effect afforded by the compounds, mixtures or compositions is not limited to these species. The analysis of synergism or antagonism between the mixtures or compositions was determined using Colby's equation.
Pots with 0.3 L of volume were filled with soil (SunGro Horticulture, Agawam, MA 01001) to grow one plant per pot in the greenhouse until the desired developmental stage. Environmental conditions inside the greenhouse were set up for 25° C., 75% relative humidity, and 12 h light day^−1 with natural sunlight or 500 […] PAR for cloudy days. […] During this time, the plants were tended, and their response to the individual treatments was evaluated. […]

Row | Compound | Herbicidal activity against Kochia (21 DAT) Found (Glufosinate 420 g ai/ha alone, visual scale 0 to 100 (100 = complete destruction), mean of three replications) | Herbicidal activity against Kochia (21 DAT) Found (Pyraflufen 0.2 g ai/ha alone, visual scale 0 to 100, mean of three replications)
1 | CP(=O)(O)CCC(N)C(=O)O (racemic) [Glufosinate, (2RS)-2-amino-4-[hydroxy(methyl)phosphinoyl]butyric acid] | 25 | –
2 | CCOC(=O)COc1cc(-c2nn(C)c(OC(F)F)c2Cl)c(F)cc1Cl [Pyraflufen, pyraflufen-ethyl] | – | 32
